Measurements published in ChEMBL document CHEMBL1208792, “A novel series of [3.2.1] azabicyclic biaryl ethers as alpha3beta4 and alpha6/4beta4 nicotinic receptor agonists” (Bioorg Med Chem Lett, 2010).

Test system: not listed separately
Experiment: Displacement of [3H]epibatidine from alpha6/4beta4 nicotinic receptor expressed in human HEK293 cells
Assay type: cell-based
Settings: not given; call rule not given here

Compound	Ki [µM]
Cl.Nc1cncc(-c2ccccc2O[C@H]2C[C@@H]3CNC[C@H]2C3)c1 (racemic)	0.00583
CN1CCC[C@H]1c1cccnc1 [NICOTINE]	0.168
COc1cncc(-c2ccccc2O[C@H]2C[C@@H]3CNC[C@H]2C3)c1.Cl (racemic)	0.00901
Cl.Oc1cncc(-c2ccccc2O[C@H]2C[C@@H]3CNC[C@H]2C3)c1 (racemic)	0.000425
c1cnc2cc3c(cc2n1)[C@@H]1CNC[C@H]3C1 [VARENICLINE]	0.089
CS(=O)(=O)Nc1ccncc1-c1ccccc1O[C@H]1C[C@@H]2CNC[C@H]1C2.Cl (racemic)	0.00521
Cl.Fc1cncc(-c2ccccc2O[C@H]2C[C@@H]3CNC[C@H]2C3)c1 (racemic)	0.0101
CCS(=O)(=O)Nc1cncc(-c2ccccc2O[C@H]2C[C@@H]3CNC[C@H]2C3)c1.Cl (racemic)	0.000313
CS(=O)(=O)Nc1cncc(-c2ccccc2O[C@H]2C[C@@H]3CNC[C@H]2C3)c1.Cl	0.000168
Cl.c1cncc(-c2ccccc2O[C@H]2C[C@@H]3CNC[C@H]2C3)c1 (racemic)	0.0038

Biological target: Acetylcholine receptor; alpha1/beta1/delta/gamma (Homo sapiens, UniProt P02708+P07510+P11230+Q07001)
Experiment: Binding affinity to alpha-1-beta-gamma-delta nicotinic receptor
Assay type: protein-complex assay
Settings: not given

Compound	Ki [µM]
Cl.Nc1cncc(-c2ccccc2O[C@H]2C[C@@H]3CNC[C@H]2C3)c1 (racemic)	> 15
CN1CCC[C@H]1c1cccnc1 [NICOTINE]	1.48
Cl.Oc1cncc(-c2ccccc2O[C@H]2C[C@@H]3CNC[C@H]2C3)c1 (racemic)	5
c1cnc2cc3c(cc2n1)[C@@H]1CNC[C@H]3C1 [VARENICLINE]	8.2
CS(=O)(=O)Nc1ccncc1-c1ccccc1O[C@H]1C[C@@H]2CNC[C@H]1C2.Cl (racemic)	> 15
Cl.Fc1cncc(-c2ccccc2O[C@H]2C[C@@H]3CNC[C@H]2C3)c1 (racemic)	> 16.9
CCS(=O)(=O)Nc1cncc(-c2ccccc2O[C@H]2C[C@@H]3CNC[C@H]2C3)c1.Cl (racemic)	> 15
CS(=O)(=O)Nc1cncc(-c2ccccc2O[C@H]2C[C@@H]3CNC[C@H]2C3)c1.Cl	11.7

Test system: not listed separately
Experiment: Agonist activity at human alpha6/4beta4 nicotinic receptor expressed in human HEK cells assessed as intracellular calcium […] by FLIPR relative to control
Assay type: functional, HEK293
Settings: not given

Compound	Efficacy [%]
Cl.Nc1cncc(-c2ccccc2O[C@H]2C[C@@H]3CNC[C@H]2C3)c1 (racemic)	107
COc1cncc(-c2ccccc2O[C@H]2C[C@@H]3CNC[C@H]2C3)c1.Cl (racemic)	<20
Cl.Oc1cncc(-c2ccccc2O[C@H]2C[C@@H]3CNC[C@H]2C3)c1 (racemic)	75
CS(=O)(=O)Nc1ccncc1-c1ccccc1O[C@H]1C[C@@H]2CNC[C@H]1C2.Cl (racemic)	48
Cl.Fc1cncc(-c2ccccc2O[C@H]2C[C@@H]3CNC[C@H]2C3)c1 (racemic)	45
CCS(=O)(=O)Nc1cncc(-c2ccccc2O[C@H]2C[C@@H]3CNC[C@H]2C3)c1.Cl (racemic)	182
CS(=O)(=O)Nc1cncc(-c2ccccc2O[C@H]2C[C@@H]3CNC[C@H]2C3)c1.Cl	148
Cl.c1cncc(-c2ccccc2O[C@H]2C[C@@H]3CNC[C@H]2C3)c1 (racemic)	32.5

Test system: Mus musculus
Experiment: Antipsychotic effect in sc dosed CD1 mouse assessed as prepulse inhibition
Assay type: functional
Settings: read-out: MED

Compound	minimal effective dose [mg/kg]
CS(=O)(=O)Nc1cncc(-c2ccccc2O[C@H]2C[C@@H]3CNC[C@H]2C3)c1.Cl	3.2

Test system: not listed separately
Experiment: Agonist activity at human alpha6/4beta4 nicotinic receptor expressed in human HEK cells assessed as intracellular calcium […] by FLIPR
Assay type: functional, cell-based, HEK293
Settings: Homo sapiens, HEK293; read-out: EC50

Compound	EC50 [µM]
Cl.Nc1cncc(-c2ccccc2O[C@H]2C[C@@H]3CNC[C@H]2C3)c1 (racemic)	0.0644
COc1cncc(-c2ccccc2O[C@H]2C[C@@H]3CNC[C@H]2C3)c1.Cl (racemic)	0.0289
CS(=O)(=O)Nc1ccncc1-c1ccccc1O[C@H]1C[C@@H]2CNC[C@H]1C2.Cl (racemic)	0.0043
Cl.Fc1cncc(-c2ccccc2O[C@H]2C[C@@H]3CNC[C@H]2C3)c1 (racemic)	0.248
CCS(=O)(=O)Nc1cncc(-c2ccccc2O[C@H]2C[C@@H]3CNC[C@H]2C3)c1.Cl (racemic)	0.00037
Cl.c1cncc(-c2ccccc2O[C@H]2C[C@@H]3CNC[C@H]2C3)c1 (racemic)	0.053

Same assay, conditions: hek293; read-out: EC50

Compound	EC50 [µM]
Cl.Oc1cncc(-c2ccccc2O[C@H]2C[C@@H]3CNC[C@H]2C3)c1 (racemic)	0.0043
CS(=O)(=O)Nc1cncc(-c2ccccc2O[C@H]2C[C@@H]3CNC[C@H]2C3)c1.Cl	0.00327

Test system: not listed separately
Experiment: Apparent permeability from apical to basolateral side of MDCK cells
Assay type: ADME, cell-based, Canis lupus familiaris
Settings: dog

Compound	Papp A→B [nm/s]
COc1cncc(-c2ccccc2O[C@H]2C[C@@H]3CNC[C@H]2C3)c1.Cl (racemic)	244
Cl.Oc1cncc(-c2ccccc2O[C@H]2C[C@@H]3CNC[C@H]2C3)c1 (racemic)	40.5
Cl.Fc1cncc(-c2ccccc2O[C@H]2C[C@@H]3CNC[C@H]2C3)c1 (racemic)	100
CCS(=O)(=O)Nc1cncc(-c2ccccc2O[C@H]2C[C@@H]3CNC[C@H]2C3)c1.Cl (racemic)	4.4
CS(=O)(=O)Nc1cncc(-c2ccccc2O[C@H]2C[C@@H]3CNC[C@H]2C3)c1.Cl	11.7
Cl.c1cncc(-c2ccccc2O[C@H]2C[C@@H]3CNC[C@H]2C3)c1 (racemic)	303

Test system: Mus musculus
Experiment: Antipsychotic effect in sc dosed CD1 mouse assessed as inhibition of mescaline-induced scratching behavioral response
Assay type: functional
Settings: read-out: ID50 (the source's name)

Compound	ED50 [mg/kg]
CS(=O)(=O)Nc1cncc(-c2ccccc2O[C@H]2C[C@@H]3CNC[C@H]2C3)c1.Cl	0.66

Same assay, conditions: read-out: MED

Compound	minimal effective dose [mg/kg]
CS(=O)(=O)Nc1cncc(-c2ccccc2O[C@H]2C[C@@H]3CNC[C@H]2C3)c1.Cl	0.1

Biological target: Voltage-gated inwardly rectifying potassium channel KCNH2 (Homo sapiens, UniProt Q12809)
Experiment: Displacement of [3H]dofetilide from human ERG expressed in HEK293 cells
Assay type: cell-based
Settings: hek293

Sequence of Voltage-gated inwardly rectifying potassium channel KCNH2 (Q12809 whole entry): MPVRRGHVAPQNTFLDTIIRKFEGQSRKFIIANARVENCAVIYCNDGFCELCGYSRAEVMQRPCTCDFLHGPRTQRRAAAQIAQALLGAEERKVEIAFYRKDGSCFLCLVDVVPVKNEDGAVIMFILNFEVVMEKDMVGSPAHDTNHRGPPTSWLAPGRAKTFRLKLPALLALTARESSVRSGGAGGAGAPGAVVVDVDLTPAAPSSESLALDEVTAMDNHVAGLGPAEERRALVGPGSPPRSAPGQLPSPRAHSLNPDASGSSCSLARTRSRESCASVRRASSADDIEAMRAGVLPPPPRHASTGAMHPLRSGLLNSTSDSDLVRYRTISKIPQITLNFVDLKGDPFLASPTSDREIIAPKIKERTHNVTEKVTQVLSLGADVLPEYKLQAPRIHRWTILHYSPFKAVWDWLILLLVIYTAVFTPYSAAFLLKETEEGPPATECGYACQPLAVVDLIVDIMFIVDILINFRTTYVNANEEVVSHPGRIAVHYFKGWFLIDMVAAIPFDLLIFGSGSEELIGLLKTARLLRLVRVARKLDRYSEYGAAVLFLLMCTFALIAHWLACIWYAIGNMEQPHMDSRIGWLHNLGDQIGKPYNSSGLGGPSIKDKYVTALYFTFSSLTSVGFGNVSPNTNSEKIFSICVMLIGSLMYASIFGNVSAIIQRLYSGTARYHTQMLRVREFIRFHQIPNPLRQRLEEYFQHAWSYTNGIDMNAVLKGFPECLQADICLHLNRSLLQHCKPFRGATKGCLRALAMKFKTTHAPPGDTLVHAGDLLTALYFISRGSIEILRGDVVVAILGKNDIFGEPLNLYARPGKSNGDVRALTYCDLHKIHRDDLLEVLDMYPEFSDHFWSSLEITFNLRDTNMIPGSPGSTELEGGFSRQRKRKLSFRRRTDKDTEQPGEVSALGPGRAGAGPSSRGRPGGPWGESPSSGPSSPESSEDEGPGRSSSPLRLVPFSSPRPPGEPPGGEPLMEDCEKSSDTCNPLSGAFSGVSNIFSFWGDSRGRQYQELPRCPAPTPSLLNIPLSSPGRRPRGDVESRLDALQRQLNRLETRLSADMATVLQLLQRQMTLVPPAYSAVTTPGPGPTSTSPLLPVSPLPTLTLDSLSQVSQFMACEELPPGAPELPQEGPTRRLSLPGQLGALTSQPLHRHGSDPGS

Compound	Ki
COc1cncc(-c2ccccc2O[C@H]2C[C@@H]3CNC[C@H]2C3)c1.Cl (racemic)	Not Active
Cl.Fc1cncc(-c2ccccc2O[C@H]2C[C@@H]3CNC[C@H]2C3)c1 (racemic)	Not Active
CCS(=O)(=O)Nc1cncc(-c2ccccc2O[C@H]2C[C@@H]3CNC[C@H]2C3)c1.Cl (racemic)	Not Active
CS(=O)(=O)Nc1cncc(-c2ccccc2O[C@H]2C[C@@H]3CNC[C@H]2C3)c1.Cl	Not Active

Same assay, conditions: read-out: Ki

Compound	Ki [µM]
Cl.Oc1cncc(-c2ccccc2O[C@H]2C[C@@H]3CNC[C@H]2C3)c1 (racemic)	1.58
Cl.c1cncc(-c2ccccc2O[C@H]2C[C@@H]3CNC[C@H]2C3)c1 (racemic)	2.16

Biological target: Neuronal acetylcholine receptor; alpha4/beta2 (Homo sapiens, UniProt P17787+P43681)
Experiment: Displacement of [3H]epibatidine from alpha4beta2 nicotinic receptor expressed in human HEK293 cells
Assay type: cell-based
Settings: read-out: Ki

Sequence of Neuronal acetylcholine receptor; alpha4/beta2 (P17787 whole entry): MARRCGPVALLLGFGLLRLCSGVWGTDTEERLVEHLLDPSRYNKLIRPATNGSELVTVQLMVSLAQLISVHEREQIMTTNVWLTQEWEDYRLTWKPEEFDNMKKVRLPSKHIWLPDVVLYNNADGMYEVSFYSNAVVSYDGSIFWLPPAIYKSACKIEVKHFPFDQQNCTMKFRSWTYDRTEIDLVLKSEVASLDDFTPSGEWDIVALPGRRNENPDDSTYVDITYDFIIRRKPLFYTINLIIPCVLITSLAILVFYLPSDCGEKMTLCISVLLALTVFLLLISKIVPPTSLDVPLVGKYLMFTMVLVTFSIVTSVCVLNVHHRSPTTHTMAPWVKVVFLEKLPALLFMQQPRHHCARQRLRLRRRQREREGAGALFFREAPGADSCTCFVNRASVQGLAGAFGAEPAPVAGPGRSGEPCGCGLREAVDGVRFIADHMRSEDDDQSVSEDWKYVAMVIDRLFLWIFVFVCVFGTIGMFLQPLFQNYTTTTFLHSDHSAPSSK
Sequence of Neuronal acetylcholine receptor; alpha4/beta2 (P43681 whole entry): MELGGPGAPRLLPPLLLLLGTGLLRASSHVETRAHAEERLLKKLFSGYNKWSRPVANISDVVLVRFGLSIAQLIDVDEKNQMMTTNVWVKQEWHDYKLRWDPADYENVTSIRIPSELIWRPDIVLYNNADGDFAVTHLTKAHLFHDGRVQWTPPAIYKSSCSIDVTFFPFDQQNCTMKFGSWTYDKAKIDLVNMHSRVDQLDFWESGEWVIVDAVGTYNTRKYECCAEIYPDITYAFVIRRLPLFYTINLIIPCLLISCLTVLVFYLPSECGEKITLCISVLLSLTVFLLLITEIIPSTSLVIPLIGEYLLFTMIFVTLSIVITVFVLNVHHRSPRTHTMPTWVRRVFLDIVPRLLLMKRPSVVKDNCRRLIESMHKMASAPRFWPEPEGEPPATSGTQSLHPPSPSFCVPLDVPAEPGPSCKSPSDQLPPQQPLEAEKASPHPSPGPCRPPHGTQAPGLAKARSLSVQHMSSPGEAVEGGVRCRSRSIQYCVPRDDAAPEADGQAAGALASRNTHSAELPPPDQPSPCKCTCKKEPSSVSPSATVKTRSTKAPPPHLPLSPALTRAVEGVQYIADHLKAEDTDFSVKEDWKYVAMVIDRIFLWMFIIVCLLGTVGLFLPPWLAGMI

Compound	Ki [µM]
Cl.Nc1cncc(-c2ccccc2O[C@H]2C[C@@H]3CNC[C@H]2C3)c1 (racemic)	> 0.575
COc1cncc(-c2ccccc2O[C@H]2C[C@@H]3CNC[C@H]2C3)c1.Cl (racemic)	> 0.309
Cl.Oc1cncc(-c2ccccc2O[C@H]2C[C@@H]3CNC[C@H]2C3)c1 (racemic)	0.255
CS(=O)(=O)Nc1ccncc1-c1ccccc1O[C@H]1C[C@@H]2CNC[C@H]1C2.Cl (racemic)	0.25
Cl.Fc1cncc(-c2ccccc2O[C@H]2C[C@@H]3CNC[C@H]2C3)c1 (racemic)	> 1.5
CCS(=O)(=O)Nc1cncc(-c2ccccc2O[C@H]2C[C@@H]3CNC[C@H]2C3)c1.Cl (racemic)	> 0.604
CS(=O)(=O)Nc1cncc(-c2ccccc2O[C@H]2C[C@@H]3CNC[C@H]2C3)c1.Cl	0.336
Cl.c1cncc(-c2ccccc2O[C@H]2C[C@@H]3CNC[C@H]2C3)c1 (racemic)	> 1.31

Biological target: T1, Neuronal acetylcholine receptor; alpha3/beta4 (Homo sapiens, UniProt P30926+P32297)
Experiment: Agonist activity at alpha3beta4 nicotinic receptor expressed in human HEK cells assessed as intracellular calcium […] by FLIPR relative to control
Assay type: functional, cell-based
Settings: HEK293

T1 sequence (P30926 whole entry): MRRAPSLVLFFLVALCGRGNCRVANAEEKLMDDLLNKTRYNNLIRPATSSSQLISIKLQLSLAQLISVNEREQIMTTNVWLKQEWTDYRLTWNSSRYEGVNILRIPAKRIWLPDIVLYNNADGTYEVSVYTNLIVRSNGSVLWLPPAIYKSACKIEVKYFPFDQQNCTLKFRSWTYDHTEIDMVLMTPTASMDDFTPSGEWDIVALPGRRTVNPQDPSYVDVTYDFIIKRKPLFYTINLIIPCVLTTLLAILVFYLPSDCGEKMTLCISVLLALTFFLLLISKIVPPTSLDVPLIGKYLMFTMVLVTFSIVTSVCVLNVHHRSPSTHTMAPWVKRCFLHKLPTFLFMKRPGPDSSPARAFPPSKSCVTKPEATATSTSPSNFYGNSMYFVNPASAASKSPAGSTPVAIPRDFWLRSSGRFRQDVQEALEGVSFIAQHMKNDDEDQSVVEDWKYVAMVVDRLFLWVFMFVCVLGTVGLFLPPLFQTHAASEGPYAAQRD
T1 sequence (P32297 whole entry): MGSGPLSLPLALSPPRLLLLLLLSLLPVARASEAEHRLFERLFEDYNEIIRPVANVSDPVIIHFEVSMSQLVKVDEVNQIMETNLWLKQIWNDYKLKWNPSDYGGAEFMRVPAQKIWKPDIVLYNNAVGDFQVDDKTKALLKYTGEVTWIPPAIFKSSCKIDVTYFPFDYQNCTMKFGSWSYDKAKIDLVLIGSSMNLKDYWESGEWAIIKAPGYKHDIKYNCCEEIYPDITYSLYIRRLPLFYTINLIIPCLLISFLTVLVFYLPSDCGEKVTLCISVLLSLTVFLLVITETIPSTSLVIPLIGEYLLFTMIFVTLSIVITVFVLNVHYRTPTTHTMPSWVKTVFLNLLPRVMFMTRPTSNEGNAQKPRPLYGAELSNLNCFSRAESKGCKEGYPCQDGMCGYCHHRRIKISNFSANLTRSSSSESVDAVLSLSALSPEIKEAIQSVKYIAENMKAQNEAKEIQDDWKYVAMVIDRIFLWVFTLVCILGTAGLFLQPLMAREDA

Compound	Efficacy [%]
CS(=O)(=O)Nc1cncc(-c2ccccc2O[C@H]2C[C@@H]3CNC[C@H]2C3)c1	120
c1cncc(-c2ccccc2O[C@H]2C[C@@H]3CNC[C@H]2C3)c1 (racemic)	45
CS(=O)(=O)Nc1cncc(-c2ccccc2O[C@H]2C[C@@H]3CNC[C@H]2C3)c1 (racemic)	116
Cl.Nc1cncc(-c2ccccc2O[C@H]2C[C@@H]3CNC[C@H]2C3)c1 (racemic)	80.5
COc1cncc(-c2ccccc2O[C@H]2C[C@@H]3CNC[C@H]2C3)c1.Cl (racemic)	11
CS(=O)(=O)Nc1ccncc1-c1ccccc1O[C@H]1C[C@@H]2CNC[C@H]1C2.Cl (racemic)	117
Cl.Fc1cncc(-c2ccccc2O[C@H]2C[C@@H]3CNC[C@H]2C3)c1 (racemic)	84.5
CCS(=O)(=O)Nc1cncc(-c2ccccc2O[C@H]2C[C@@H]3CNC[C@H]2C3)c1.Cl (racemic)	108
Oc1cncc(-c2ccccc2O[C@H]2C[C@@H]3CNC[C@H]2C3)c1 (racemic)	117
Oc1cncc(-c2ccccc2O[C@H]2C[C@@H]3CNC[C@H]2C3)c1	118

Biological target: T1, Neuronal acetylcholine receptor; alpha3/beta4
Experiment: Agonist activity at alpha3beta4 nicotinic receptor expressed in human HEK cells assessed as intracellular calcium efflux by FLIPR
Settings: not given

Compound	EC50 [µM]
Cl.Nc1cncc(-c2ccccc2O[C@H]2C[C@@H]3CNC[C@H]2C3)c1 (racemic)	0.0339
COc1cncc(-c2ccccc2O[C@H]2C[C@@H]3CNC[C@H]2C3)c1.Cl (racemic)	0.0327
Cl.Oc1cncc(-c2ccccc2O[C@H]2C[C@@H]3CNC[C@H]2C3)c1 (racemic)	0.00259
CS(=O)(=O)Nc1ccncc1-c1ccccc1O[C@H]1C[C@@H]2CNC[C@H]1C2.Cl (racemic)	0.112
Cl.Fc1cncc(-c2ccccc2O[C@H]2C[C@@H]3CNC[C@H]2C3)c1 (racemic)	0.316
CCS(=O)(=O)Nc1cncc(-c2ccccc2O[C@H]2C[C@@H]3CNC[C@H]2C3)c1.Cl (racemic)	0.00109
CS(=O)(=O)Nc1cncc(-c2ccccc2O[C@H]2C[C@@H]3CNC[C@H]2C3)c1.Cl	0.00306
Cl.c1cncc(-c2ccccc2O[C@H]2C[C@@H]3CNC[C@H]2C3)c1 (racemic)	0.057

Biological target: T1, Neuronal acetylcholine receptor; alpha3/beta4
Experiment: Displacement of [3H]epibatidine from alpha3beta4 nicotinic receptor expressed in human HEK293 cells
Assay type: cell-based
Settings: not given

Compound	Ki [µM]
Cl.Nc1cncc(-c2ccccc2O[C@H]2C[C@@H]3CNC[C@H]2C3)c1 (racemic)	0.00148
COc1cncc(-c2ccccc2O[C@H]2C[C@@H]3CNC[C@H]2C3)c1.Cl (racemic)	0.0941
Cl.Oc1cncc(-c2ccccc2O[C@H]2C[C@@H]3CNC[C@H]2C3)c1 (racemic)	0.000186
CS(=O)(=O)Nc1ccncc1-c1ccccc1O[C@H]1C[C@@H]2CNC[C@H]1C2.Cl (racemic)	0.000382
Cl.Fc1cncc(-c2ccccc2O[C@H]2C[C@@H]3CNC[C@H]2C3)c1 (racemic)	0.00217
CCS(=O)(=O)Nc1cncc(-c2ccccc2O[C@H]2C[C@@H]3CNC[C@H]2C3)c1.Cl (racemic)	0.000149
CS(=O)(=O)Nc1cncc(-c2ccccc2O[C@H]2C[C@@H]3CNC[C@H]2C3)c1.Cl	0.000158
Cl.c1cncc(-c2ccccc2O[C@H]2C[C@@H]3CNC[C@H]2C3)c1 (racemic)	0.0013

Biological target: Neuronal acetylcholine receptor subunit alpha-7 (Homo sapiens, UniProt P36544)
Experiment: Displacement of [3H]epibatidine from alpha7 nicotinic receptor expressed in human HEK293 cells
Assay type: cell-based
Settings: not given

Sequence of Neuronal acetylcholine receptor subunit alpha-7 (P36544 whole entry): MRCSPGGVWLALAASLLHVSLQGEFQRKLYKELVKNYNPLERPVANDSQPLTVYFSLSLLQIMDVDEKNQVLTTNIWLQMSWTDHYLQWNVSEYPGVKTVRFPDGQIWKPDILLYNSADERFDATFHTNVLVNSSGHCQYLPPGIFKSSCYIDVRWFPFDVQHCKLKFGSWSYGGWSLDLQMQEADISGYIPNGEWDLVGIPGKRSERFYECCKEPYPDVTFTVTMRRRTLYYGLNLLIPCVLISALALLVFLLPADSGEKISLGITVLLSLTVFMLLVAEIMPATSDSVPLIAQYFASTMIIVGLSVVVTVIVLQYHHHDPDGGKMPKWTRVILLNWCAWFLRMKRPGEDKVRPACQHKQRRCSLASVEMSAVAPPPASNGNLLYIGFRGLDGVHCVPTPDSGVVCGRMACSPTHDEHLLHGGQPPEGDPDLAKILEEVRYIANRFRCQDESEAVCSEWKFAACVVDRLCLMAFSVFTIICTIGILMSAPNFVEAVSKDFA

Compound	Ki [µM]
Cl.Nc1cncc(-c2ccccc2O[C@H]2C[C@@H]3CNC[C@H]2C3)c1 (racemic)	> 15
Cl.Oc1cncc(-c2ccccc2O[C@H]2C[C@@H]3CNC[C@H]2C3)c1 (racemic)	1.58
CS(=O)(=O)Nc1ccncc1-c1ccccc1O[C@H]1C[C@@H]2CNC[C@H]1C2.Cl (racemic)	7.59
Cl.Fc1cncc(-c2ccccc2O[C@H]2C[C@@H]3CNC[C@H]2C3)c1 (racemic)	> 13.5
CCS(=O)(=O)Nc1cncc(-c2ccccc2O[C@H]2C[C@@H]3CNC[C@H]2C3)c1.Cl (racemic)	9.87
CS(=O)(=O)Nc1cncc(-c2ccccc2O[C@H]2C[C@@H]3CNC[C@H]2C3)c1.Cl	4.78

Test system: human MDR (P-glycoprotein)
Experiment: Efflux ratio of permeability from basolateral to apical side over apical to basolateral side of MDCK cells expressing human MDR gene
Assay type: ADME, cell-based, Canis lupus familiaris
Settings: dog, MDCK-MDR1

Compound	efflux ratio
COc1cncc(-c2ccccc2O[C@H]2C[C@@H]3CNC[C@H]2C3)c1.Cl (racemic)	1.76
Cl.Oc1cncc(-c2ccccc2O[C@H]2C[C@@H]3CNC[C@H]2C3)c1 (racemic)	5.84
Cl.Fc1cncc(-c2ccccc2O[C@H]2C[C@@H]3CNC[C@H]2C3)c1 (racemic)	1.29
CCS(=O)(=O)Nc1cncc(-c2ccccc2O[C@H]2C[C@@H]3CNC[C@H]2C3)c1.Cl (racemic)	0.93
CS(=O)(=O)Nc1cncc(-c2ccccc2O[C@H]2C[C@@H]3CNC[C@H]2C3)c1.Cl	4.38
Cl.c1cncc(-c2ccccc2O[C@H]2C[C@@H]3CNC[C@H]2C3)c1 (racemic)	1.75
